In brackets after ≈: the same amount, converted by molar mass. Where two headings read alike, the source gives them in different places.
Legend:
Format in all cases: cell-based
A. baumannii = test: Synergy with PME (Table 7)
[1] = system: RecA-GFP fusion protein in E. coli MG1655; test: Inhibition of norfloxacin-triggered RecA-GFP induction in E. coli MG1655
Protocol: An increase in DNA damage-induced RecA protein expression is required for identification and repair of DNA lesions. LexA-repressed transcription of a norfloxacin-triggered SOS response was measured by detecting an increase in RecA-GFP fusion protein fluorescence in an E. coli recombinant model. The compounds of the disclosure inhibited RecA-GFP induction and presumably, the concurrent SOS response. Inhibition of RecA-GFP expression correlated with an increase in cell death, most likely as a result of ALD activation. Sub-potent concentrations of Polymixin E were used to facilitate entry of the compounds into cells.
E. coli MG1655 was grown from a glycerol stock by placing a small volume of cells onto a MHA plate. The MHA plate was incubated overnight at 37° C. A single colony was subsequently used to inoculate MHB+10 μg/mL kanamycin to obtain a bacterial broth suspension. This was grown in at 37° C. on a rotary shaking incubator (100 rpm) for 12 hours. The bacterial cell concentration was adjusted to ˜5×10^5 colony forming units per milliliter (CFU/mL) in MHB using optical density at 595 nm. Treated cells with polymyxin E (PME) or norfloxacin (in μg/ml) at indicated concentrations for 30 minutes at 37° C. and then added a compound of the disclosure at indicated micromolar concentrations. Incubated for 3.5 hours at 37° C. Cell samples were read on the flow cytometer to detect (green fluorescent) RLU RecA expression and/or shutdown.
E. coli MG1655 was grown from a glycerol stock by placing a small volume of cells onto a MHA plate. The MHA plate was incubated overnight at 37° C. A single colony was subsequently used to inoculate MHB+10 μg/mL kanamycin to obtain a bacterial broth suspension. The MHB broth suspension was grown at 37° C. on a rotary shaking incubator (100 rpm) for 12 hours. The bacterial cell concentration was adjusted to ˜5×10^5 CFU/mL in MHB using OD at 595 nm.
Cells were treated with 0.03 μg/mL and 0.06 μg/mL norfloxacin for 30 minutes at 37° C. Then, 100 μM of the compounds were added. The cells were incubated for 3.5 hours at 37° C. 200 μL aliquots were removed and read by a flow cytometer to detect RecA production and/or shutdown. The cells were incubated for an additional 18 hours at 37° C. to assess overall toxicity.

A. baumannii ATCC 15151 [2] = test: microbe, parasite or virus in culture; conditions: for change of MIC from Day 0 to Day 30 / development of resistance: 30 days; for MIC: Acinetobacter baumannii; for Evolution of resistance?: Table 7
Protocol: A. baumannii ATCC 15151 was grown from a glycerol stock by placing a small volume of cells onto a MHA plate. The MHA plate was incubated overnight at 37° C. A single colony was subsequently used to inoculate MHB to obtain a bacterial broth suspension. The MHB broth suspension was grown at 37° C. on a rotary shaking incubator (100 rpm) for 12 hours. The bacterial cell concentration was adjusted to ˜5×10^5 CFU/mL in MHB or MHB using OD at 595 nm. […] (PAO) and the negative control was non-treated cells. All treatments were performed in triplicate. The plate was incubated for 20 hours at 37° C. in a Tecan plate reader, where the cells were shaken every hour and an OD reading was taken at 600 nm. […] These cells were again plated in a 96-well plate and incubated as before. This was performed a total of 30 days.

[3] = system: drug-resistant A. baumannii strains obtained from the CDC and Prevention Antimicrobial Isolate Bank; test: MIC on drug-resistant A. baumannii strains from the CDC Antimicrobial Isolate Bank; conditions: Acinetobacter baumannii
HeLa cells [4] = test: HeLa cell toxicity IC50 (MTT); conditions: Homo sapiens, 10% FBS
Protocol: HeLa cells: HeLa cells were trypsinized and counted in number of cells/mL using a hemocytometer. Cells were then plated at 4×10^3 HeLa cells/100 μL in tissue culture-treated 96-well plates in DMEM+1% penicillin/streptomycin (P/S)+10% FBS. HeLa cells were treated with 100 μM of a compound of interest and serially diluted two-fold. Samples were also prepared with no treatment, 1% DMSO, and 100 μM PAO. The cells were incubated for 48 hours at 37° C. in a humidified incubator with 5% CO2. 10% v/v MTT reagent (5 mg/mL stock) was added to each sample, and the samples were incubated for 2 hours before removing the supernatant and solubilizing the samples in 100 μL DMSO. OD readings were obtained at 595 nm. IC50 values were reported.

A. baumannii ATCC 1515 = test: Membrane depolarization detected by DiOC2(3); conditions: 1xMIC; for cell membrane depolarization: 20 μM CCCP, 25 minutes; for cell membrane depolarization over time: 10, 20, 30, and 50 minutes
HeLa cells [5] = test: HeLa cell toxicity IC50 (MTT); conditions: Homo sapiens
A. baumannii ATCC 15151 [6] = test: MIC on A. baumannii ATCC 15151; conditions: Acinetobacter baumannii, ATCC15151; A. baumannii ATCC 15151 (heading of Example 9)
[7] = system: A. baumannii ATCC BAA-1797; test: Colony counts of A. baumannii ATCC BAA-1797 treated with 4xMIC for 16 hours; conditions: for kill of A. baumannii ATCC BAA-1797: 4xMIC (24 μM Compound 25, 24 μM Compound 26, 100 μM Compound 27, 48 μM Compound 14, 100 μM Compound 15)
[8] = ATCC15151, 0 h, read-out: Starting MIC Day 0, A. baumannii ATCC 15151, Day 0
[9] = ATCC15151, read-out: Final MIC Day 30, A. baumannii ATCC 15151, Day 30
[10] = 18 h, A. baumannii CDC AR033, 18 hours, read-out: MIC values for AR033
[11] = 18 h, A. baumannii CDC AR083, 18 hours, read-out: MIC values for AR083
[12] = HeLa, Table 7, read-out: IC50 on HeLa in 10% FBS
[13] = HeLa cells, read-out: IC50 10% FBS
[14] = HeLa, read-out: IC50 on HeLa in 40% FBS, Table 7
[15] = read-out: IC50 40% FBS, HeLa cells

Row | SMILES | Synergize with PME? (A. baumannii) | RecA attenuation with norflox on E. coli [1] | change of MIC from Day 0 to Day 30 (A. baumannii ATCC 15151 [2]) [fold] | development of resistance (A. baumannii ATCC 15151 [2]) | MIC (A. baumannii ATCC 15151 [2]; [8]) [µM] | MIC (A. baumannii ATCC 15151 [2]; [9]) [µM] | Evolution of resistance? (A. baumannii ATCC 15151 [2]) | MIC [3, 10] [µM] | MIC [3, 11] [µM] | IC50 (HeLa cells [4]; [12]) [µM] | IC50 (HeLa cells [4]; [13]) [µM] | cell membrane depolarization (A. baumannii ATCC 1515) | IC50 (HeLa cells [5]; [14]) [µM] | IC50 (HeLa cells [5]; [15]) [µM] | MIC (A. baumannii ATCC 15151 [6]) [µM] | Kill at 4X MIC at 16 hours [7] | kill of A. baumannii ATCC BAA-1797 [7] | cell membrane depolarization over time (A. baumannii ATCC 1515) | other results
1 | Cl.Clc1ccc(N/N=C/c2c[nH]c3cccc(OCc4ccccc4)c23)cc1 [Compound 26, (E)-2-((4-(benzyloxy)-1H-indol-3-yl)methylene)-1-(4-chlorophenyl)hydrazin-1-ium] | Yes, at 1 μM | Yes | 2 | slight resistance | 6 | 12 | Yes; 2-fold | 6 | 6 | 37.3 ± 1.8 | 37.3 ± 1.8 | depolarized the cell membrane | 58.2 | 58.2 | 3 | 5-logs | ~5 orders of magnitude | – | –
2 | Clc1ccc(N/N=C/c2c[nH]c3ccc(Br)cc23)cc1 [Compound 15, (E)-5-bromo-3-((2-(4-chlorophenyl)hydrazineylidene)methyl)-1H-indole] | – | Yes | – | – | – | – | Yes; >4-fold | 25 (≈ 8.72 µg/mL) | 12.5 (≈ 4.36 µg/mL) | 20.9 ± 1.5 | 20.9 ± 1.5 | – | 67.4 | 67.4 | 12.5 (≈ 4.36 µg/mL) | 6-logs | ~5 orders of magnitude | caused the most depolarization | –
3 | Nc1cccc2[nH]cc(/C=N/Nc3ccc(Cl)cc3)c12 [Compound 14, (E)-3-((2-(4-chlorophenyl)hydrazineylidene)methyl)-1H-indol-4-amine] | Yes, at 4 μM | Yes | 8 | significant resistance | 12.5 (≈ 3.56 µg/mL) | ≥ 100 | Yes; >6-fold | 25 (≈ 7.12 µg/mL) | – | 36.7 ± 3.8 | 36.7 ± 3.8 | depolarized the cell membrane | 183 | 183 | 6 (≈ 1.71 µg/mL) | 5-logs | ~5 orders of magnitude | – | MIC ([3]; 18 h, read-out: MIC values for AR083): 12.5 µM (≈ 3.56 µg/mL)
4 | Brc1ccc(N/N=C/c2c[nH]c3cccc(OCc4ccccc4)c23)cc1.Cl [Compound 25, (E)-2-((4-(benzyloxy)-1H-indol-3-yl)methylene)-1-(4-bromophenyl)hydrazin-1-ium chloride] | Yes, at 1 μM | Yes | – | had not developed resistance | 6 | 6 | No | 6 | < 3 | 30.4 ± 3.3 | 30.4 ± 3.3 | depolarized the cell membrane | 101 | 101 | 3 | 5-logs | ~5 orders of magnitude | depolarized the membrane the least | MIC ([3]; AR bank # 33, SAMN04014874, read-out: Compound 25 MIC): 6 µM; MIC ([3]; AR bank # 35, SAMN04014876, read-out: Compound 25 MIC): 12.5 µM; MIC ([3]; AR bank # 36, SAMN04014877, read-out: Compound 25 MIC): 12.5 µM; MIC ([3]; AR bank # 37, SAMN04014878, read-out: Compound 25 MIC): 6 µM; MIC ([3]; AR bank # 45, SAMN04014886, read-out: Compound 25 MIC): 6 µM; MIC ([3]; AR bank # 52, SAMN04014893, read-out: Compound 25 MIC): 6 µM; MIC ([3]; AR bank # 56, SAMN04014897, read-out: Compound 25 MIC): 3 µM; MIC ([3]; AR bank # 63, SAMN04014904, read-out: Compound 25 MIC): 3 µM; MIC ([3]; AR bank # 70, SAMN04014911, read-out: Compound 25 MIC): 3 µM; MIC ([3]; AR bank # 78, SAMN04014919, read-out: Compound 25 MIC): 6 µM; MIC ([3]; AR bank # 83, SAMN04014924, read-out: Compound 25 MIC): 3 µM; MIC ([3]; AR bank # 88, SAMN04014929, read-out: Compound 25 MIC): 6 µM; MIC ([3]; AR bank # 101, SAMN04014942, read-out: Compound 25 MIC): 6 µM; MIC ([3]; AR bank # 102, SAMN04014943, read-out: Compound 25 MIC): 6 µM
5 | Cl.Fc1ccc(N/N=C/c2c[nH]c3cccc(OCc4ccccc4)c23)cc1 [Compound 27, (E)-2-((4-(benzyloxy)-1H-indol-3-yl)methylene)-1-(4-fluorophenyl)hydrazin-1-ium] | Yes, at 6 μM | Yes | – | – | – | – | Yes; 4-fold | 25 | 12.5 | 25.8 ± 5.2 | 25.8 ± 5.2 | – | 69.7 | 69.7 | 12.5 | 5-logs | ~5 orders of magnitude | caused the most depolarization | –

Reference: patent US12655101B2, “Small molecules with antibacterial activity” (NEW MEXICO TECH UNIVERSITY RESEARCH PARK CORPORATION, priority 2021, dated 2026)
